Test results reported in article PMC4096218 (Journal of Medicinal Chemistry, 2014).
Values after ≈ are worked out from the molar mass of the structure shown.

Assays:
[1] = test system: Bacillus anthracis strain Sterne; test: microbe, parasite or virus in culture; format: cell-based
[2] = test system: panel of both Gram-positive and Gram-negative bacteria; format: cell-based; settings: for MIC values (range in words): B. anthracis Sterne, MRSA, VRE, L. monocytogenes
EcUPPS = biological target: T1, EcUPPS (Escherichia coli, UniProt P60472); settings: inhibitor in EcUPPS X-ray structure 2E98; cited from earlier work
T1 sequence (P60472 1-253): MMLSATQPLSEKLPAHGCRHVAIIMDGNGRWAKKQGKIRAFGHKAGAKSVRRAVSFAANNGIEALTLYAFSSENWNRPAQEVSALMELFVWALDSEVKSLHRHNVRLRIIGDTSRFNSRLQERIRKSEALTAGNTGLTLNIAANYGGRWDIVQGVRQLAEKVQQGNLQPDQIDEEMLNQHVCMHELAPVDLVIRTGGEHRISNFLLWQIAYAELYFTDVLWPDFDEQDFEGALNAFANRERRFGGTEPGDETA

Row | SMILES | MIC [1] [µg/mL] | MIC values (range in words) [2] | growth of Gram negatives [2] | growth of Gram positives [2] | IC50 (EcUPPS) [nM]
1 | Cc1cc(Cl)ccc1-c1ccc(/C=C2\SC(=S)N(CC(=O)O)C2=O)o1 [Compound 1] | 1 to 2 (≈ 2.54 to 5.08 µM) | high ng/mL to low μg/mL range | did not inhibit the growth of Gram negatives | inhibited the growth of Gram positives | 
2 | O=C(O)CCN1C(=O)/C(=C/c2ccc(-c3ccc(Cl)cc3Cl)o2)SC1=S [Compound 4] |  | high ng/mL to low μg/mL range | did not inhibit the growth of Gram negatives | inhibited the growth of Gram positives | 
3 | O=P(O)(O)C(O)(Cc1cccc(-c2cccc3c2oc2ccccc23)c1)P(=O)(O)O [BPH-629] |  |  |  |  | ~300
